How the values were obtained:
human FPR2 = human FPR2 (Homo sapiens (Human), UniProt P25090); experiment: FPR2 cyclic adenosine monophosphate (cAMP) assay in CHO cells overexpressing human FPR2; assay type: cell-based; conditions: forskolin 5 μM, inhibition of cAMP production, read-out: hFPR2 cAMP2 EC50
Description: N-formyl peptide receptors (FPRs) are a family of chemo attractant receptors that facilitate leukocyte response during inflammation. FPRs belong to the seven-transmembrane G protein-coupled receptor superfamily and are linked to inhibitory G-proteins (Gi). Three family members (FPR1, FPR2 and FPR3) have been identified in humans and are predominantly found in myeloid cells with varied distribution and have also been reported in multiple organs and tissues. After agonist binding, the FPRs activate a multitude of physiological pathways, such as intra cellular signaling transduction, Ca^2+ mobilization and transcription. The family interacts with a diverse set of ligands that includes proteins, polypeptides and fatty acid metabolites which activate both pro-inflammatory and pro-resolution downstream responses. […]
FPR2 and FPR1 Cyclic Adenosine Monophosphate (cAMP) Assays. […] The level of intracellular cAMP was determined using the HTRF HiRange cAMP assay reagent kit (Cisbio) according to manufacturer's instruction. […] After a 1-h room temperature incubation, time-resolved fluorescence intensity was measured using the Envision (Perkin-Elmer) at 400 nm excitation and dual emission at 590 nm and 665 nm. […] The potency and activity of a compound to inhibit cAMP production was then determined by fitting to a 4-parametric logistic equation from a plot of cAMP level versus compound concentrations. […]

human FPR1 = human FPR1 (Homo sapiens (Human), UniProt P21462); experiment: FPR1 cyclic adenosine monophosphate (cAMP) assay in CHO cells overexpressing human FPR1; assay type: cell-based; conditions: forskolin 10 μM, inhibition of cAMP production, read-out: hFPR1 cAMP EC50
Chain of human FPR1 (P21462 whole entry): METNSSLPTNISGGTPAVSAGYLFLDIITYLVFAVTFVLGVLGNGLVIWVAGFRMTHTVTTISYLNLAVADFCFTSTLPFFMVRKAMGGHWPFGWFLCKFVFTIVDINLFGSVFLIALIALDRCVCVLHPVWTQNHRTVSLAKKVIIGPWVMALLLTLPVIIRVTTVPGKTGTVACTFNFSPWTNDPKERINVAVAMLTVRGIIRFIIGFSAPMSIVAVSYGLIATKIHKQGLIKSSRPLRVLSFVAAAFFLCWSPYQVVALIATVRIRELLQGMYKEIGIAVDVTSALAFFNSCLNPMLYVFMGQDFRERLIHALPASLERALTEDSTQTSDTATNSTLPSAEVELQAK

Chain of human FPR2 (P25090 whole entry): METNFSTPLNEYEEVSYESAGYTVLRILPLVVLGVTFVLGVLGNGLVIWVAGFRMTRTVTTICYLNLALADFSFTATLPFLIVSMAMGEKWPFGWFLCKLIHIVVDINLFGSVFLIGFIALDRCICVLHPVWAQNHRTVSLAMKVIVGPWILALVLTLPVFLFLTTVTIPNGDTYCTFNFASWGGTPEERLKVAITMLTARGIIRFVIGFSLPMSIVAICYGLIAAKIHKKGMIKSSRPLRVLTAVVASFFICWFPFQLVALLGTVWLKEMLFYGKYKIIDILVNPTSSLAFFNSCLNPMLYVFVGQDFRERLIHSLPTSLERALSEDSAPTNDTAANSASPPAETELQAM

EC50 (human FPR2): 8.6 nM | EC50 (human FPR1): 52 nM
SMILES: COc1c(-c2ccccc2CO)ccc(N2CC[C@@H](NC(=O)Nc3ccc(Cl)cc3F)C2=O)c1F [Example 35]

Reference: patent publication US11117861B2, “Phenylpyrrolidinone formyl peptide 2 receptor agonists” (BRISTOL-MYERS SQUIBB COMPANY, priority 2018, dated 2021)
